According to US5811444A, “Compositions for reducing abnormal stimulation of endothelin receptors and novel compounds” (Roussel Uclaf, priority 1994, dated 1998):

Columns and labels:
[1] = target: T1, A receptor of endothelin (Rattus norvegicus, UniProt P26684); assay: Study of the activity on the A receptor of endothelin (displacement of 125I Endothelin, rat heart ventricle membranes); type: binding; conditions: rat heart (ventricles) membranes, 25 °C, 60 minutes, pH 7.4, read-out: A receptor of endothelin IC/50
T1 construct: A membrane preparation is produced from the heart (ventricles) of a rat; from tissue; host or cells: rat heart ventricles, membranes
T1 sequence (P26684 21-426): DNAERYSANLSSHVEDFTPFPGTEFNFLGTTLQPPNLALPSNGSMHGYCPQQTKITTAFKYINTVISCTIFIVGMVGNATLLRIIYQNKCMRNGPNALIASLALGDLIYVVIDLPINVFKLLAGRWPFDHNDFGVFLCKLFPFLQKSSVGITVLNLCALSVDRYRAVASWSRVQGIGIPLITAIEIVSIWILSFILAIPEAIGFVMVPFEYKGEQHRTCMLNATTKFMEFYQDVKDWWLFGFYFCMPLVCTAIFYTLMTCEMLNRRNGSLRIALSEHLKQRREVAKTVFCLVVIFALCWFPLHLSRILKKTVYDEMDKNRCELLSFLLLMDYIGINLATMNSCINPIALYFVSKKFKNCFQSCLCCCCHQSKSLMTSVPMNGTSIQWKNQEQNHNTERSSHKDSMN
Description: STUDY OF THE ACTIVITY ON THE A RECEPTOR OF ENDOTHELIN
A membrane preparation is produced from the heart (ventricles) of a rat. The tissue is ground up in a POLYTRON in a 50 mM Tris buffer pH=7.4.
After 30 minutes at 25° C. (W.B.) the homogenate is centrifuged at 30000 g for 15 minutes (2 centrifugations with intermediate take up in the Tris buffer pH. 7.4).
(§1) The pellets are resuspended in an incubation buffer (25 mM Tris, 5 microg/ml pepstatin A, 3 microg/ml aprotinin, 0.1 mM PMSF, 3 mM EDTA, 1 mM EGTA pH 7.4).
(§2) 2 ml aliquots are distributed into hemolysis tubes and ^125 I Endothelin (approximately 50000 dpm/tube) and the product to be studied are added. (The product is first tested at 3×10^-5 M three times). When the tested product displaces more than 50% of the radioactivity specifically bound to the receptor, it is tested again according to a range of 7 concentrations so as to determine the concentration which inhibits the radioactivity specifically bound to the receptor by 50%. In this way the 50% inhibitory concentration is determined.
(§3) The non-specific bond is determined by the addition of 10^-6 M endothelin (three times). After incubation at 25° C. for 60 minutes, putting back in the water bath at 0° C., for 5 minutes, filtering under reduced pressure, rinsing with Tris buffer 7.4, the radioactivity is counted in the presence of scintillating Triton. […]

[2] = target: T2, B receptor of endothelin (Rattus norvegicus, UniProt P21451); assay: Study of the activity on the B receptor of endothelin (displacement of 125I Endothelin, rat posterior cortex plus cerebellum membranes); type: binding; conditions: 25 °C, 60 minutes, pH 7.4, read-out: B receptor of endothelin IC/50
T2 construct: A membrane preparation is produced from the posterior cortex plus cerebellum of a rat; from tissue; host or cells: rat posterior cortex plus cerebellum, membranes
T2 sequence (P21451 27-442): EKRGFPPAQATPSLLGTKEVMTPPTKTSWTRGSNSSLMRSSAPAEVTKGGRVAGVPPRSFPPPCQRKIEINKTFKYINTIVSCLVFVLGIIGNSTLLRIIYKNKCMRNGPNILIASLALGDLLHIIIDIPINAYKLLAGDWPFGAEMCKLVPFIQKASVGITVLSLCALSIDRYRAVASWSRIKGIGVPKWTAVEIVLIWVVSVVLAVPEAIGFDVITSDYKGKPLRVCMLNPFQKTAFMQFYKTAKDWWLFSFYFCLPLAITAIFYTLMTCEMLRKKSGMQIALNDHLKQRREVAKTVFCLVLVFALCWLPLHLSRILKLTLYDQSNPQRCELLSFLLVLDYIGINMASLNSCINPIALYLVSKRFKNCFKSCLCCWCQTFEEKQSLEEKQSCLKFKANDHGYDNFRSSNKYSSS
Description: STUDY OF THE ACTIVITY ON THE B RECEPTOR OF ENDOTHELIN
A membrane preparation is produced from the posterior cortex plus cerebellum of a rat. The tissue is ground up in a POLYTRON in a 50 mM Tris buffer pH=7.4.
After 30 minutes at 25° C. (W.B.) the homogenate is centrifuged at 30000 g for 15 minutes (2 centrifugations with intermediate take-up in the Tris buffer pH. 7.4).
as §1, §2, §3

For CCCCc1nc(S(=O)(=O)c2ccc(OC)cc2)c(C(=O)O)n1Cc1cc2c(cc1Cl)OCO2 [Example 10, 2-butyl-1-((6-chloro-1,3-benzodioxol-5-yl)methyl)-4-((4-methoxyphenyl)sulphonyl)-1H-imidazole-5-carboxylic acid], the IC50 [1] was 91 nM and the IC50 [2] was 250 nM.

In the case of COc1ccc(Sc2nc(C)n(Cc3cc4c(cc3Cl)OCO4)c2C(=O)O)cc1 [Example 21, 1-((6-chloro-1,3-benzodioxol-5-yl)methyl)-4-((4-methoxyphenyl)thio)-2-methyl-1H-imidazole-5-carboxylic acid], the IC50 [1] is reported as 110 nM and the IC50 [2] is reported as 350 nM.
